Tests used:
[1] = test system: Macacine alphaherpesvirus 1; test: Antiviral activity against Macacine herpesvirus 1 isolate MR1 infected in african green monkey Vero cells by plaque reduction assay; assay type: functional, organism-based; conditions: Macacine alphaherpesvirus 1, isolate MR1, Vero
[2] = test system: Macacine alphaherpesvirus 1; test: Antiviral activity against Macacine herpesvirus 1 isolate MR9 infected in african green monkey Vero cells by plaque reduction assay; assay type: functional, organism-based; conditions: Macacine alphaherpesvirus 1, isolate MR9, Vero
[3] = test system: Macacine alphaherpesvirus 1; test: Antiviral activity against Macacine herpesvirus 1 isolate MR11 infected in african green monkey Vero cells by plaque reduction assay; assay type: functional, organism-based; conditions: Macacine alphaherpesvirus 1, isolate MR11, Vero
[4] = test system: Macacine alphaherpesvirus 1; test: Antiviral activity against Macacine herpesvirus 1 isolate A6 infected in african green monkey Vero cells by plaque reduction assay; assay type: functional, organism-based; conditions: Macacine alphaherpesvirus 1, isolate A6, Vero
[5] = test system: Macacine alphaherpesvirus 1; test: Antiviral activity against Macacine herpesvirus 1 isolate MC2 infected in african green monkey Vero cells by plaque reduction assay; assay type: functional, organism-based; conditions: Macacine alphaherpesvirus 1, isolate MC2, Vero
[6] = test system: Macacine alphaherpesvirus 1; test: Antiviral activity against Macacine herpesvirus 1 isolate MR6 infected in african green monkey Vero cells by plaque reduction assay; assay type: functional, organism-based; conditions: Macacine alphaherpesvirus 1, isolate MR6, Vero
Human alphaherpesvirus 1 [7] = test: Antiviral activity against HSV1 infected in african green monkey Vero cells by plaque reduction assay; assay type: functional, organism-based; conditions: Human alphaherpesvirus 1, Vero
[8] = test system: Macacine alphaherpesvirus 1; test: Antiviral activity against Macacine herpesvirus 1 isolate A1 infected in african green monkey Vero cells by plaque reduction assay; assay type: functional, organism-based; conditions: Macacine alphaherpesvirus 1, isolate A1, Vero
[9] = test system: Macacine alphaherpesvirus 1; test: Antiviral activity against Macacine herpesvirus 1 isolate A5 infected in african green monkey Vero cells by plaque reduction assay; assay type: functional, organism-based; conditions: Macacine alphaherpesvirus 1, isolate A5, Vero
[10] = test system: Macacine alphaherpesvirus 1; test: Antiviral activity against Macacine herpesvirus 1 isolate A3 infected in african green monkey Vero cells by plaque reduction assay; assay type: functional, organism-based; conditions: Macacine alphaherpesvirus 1, isolate A3, Vero
[11] = test system: Macacine alphaherpesvirus 1; test: Antiviral activity against Macacine herpesvirus 1 isolate MR3 infected in african green monkey Vero cells by plaque reduction assay; assay type: functional, organism-based; conditions: Macacine alphaherpesvirus 1, isolate MR3, Vero
[12] = test system: Macacine alphaherpesvirus 1; test: Antiviral activity against Macacine herpesvirus 1 isolate MP1 infected in african green monkey Vero cells by plaque reduction assay; assay type: functional, organism-based; conditions: Macacine alphaherpesvirus 1, isolate MP1, Vero
[13] = test system: Macacine alphaherpesvirus 1; test: Antiviral activity against Macacine herpesvirus 1 isolate MR5 infected in african green monkey Vero cells by plaque reduction assay; assay type: functional, organism-based; conditions: Macacine alphaherpesvirus 1, isolate MR5, Vero
[14] = test system: Macacine alphaherpesvirus 1; test: Antiviral activity against Macacine herpesvirus 1 isolate MR2 infected in african green monkey Vero cells by plaque reduction assay; assay type: functional, organism-based; conditions: Macacine alphaherpesvirus 1, isolate MR2, Vero
[15] = test system: Macacine alphaherpesvirus 1; test: Antiviral activity against Macacine herpesvirus 1 infected in rabbits assessed as survival after 5 months; assay type: functional
Human alphaherpesvirus 2 [16] = test: Antiviral activity against HSV2 infected in african green monkey Vero cells by plaque reduction assay; assay type: functional, organism-based; conditions: Human alphaherpesvirus 2, Vero
[17] = test system: Macacine alphaherpesvirus 1; test: Antiviral activity against Macacine herpesvirus 1 isolate MJ3 infected in african green monkey Vero cells by plaque reduction assay; assay type: functional, organism-based; conditions: Macacine alphaherpesvirus 1, isolate MJ3, Vero
[18] = test system: Macacine alphaherpesvirus 1; test: Antiviral activity against Macacine herpesvirus 1 isolate MR4 infected in african green monkey Vero cells by plaque reduction assay; assay type: functional, organism-based; conditions: Macacine alphaherpesvirus 1, isolate MR4, Vero
[19] = test system: Macacine alphaherpesvirus 1; test: Antiviral activity against Macacine herpesvirus 1 isolate MR7 infected in african green monkey Vero cells by plaque reduction assay; assay type: functional, organism-based; conditions: Macacine alphaherpesvirus 1, isolate MR7, Vero
[20] = test system: Macacine alphaherpesvirus 1; test: Antiviral activity against Macacine herpesvirus 1 isolate MR8 infected in african green monkey Vero cells by plaque reduction assay; assay type: functional, organism-based; conditions: Macacine alphaherpesvirus 1, isolate MR8, Vero
[21] = test system: Macacine alphaherpesvirus 1; test: Antiviral activity against Macacine herpesvirus 1 isolate MJ2 infected in african green monkey Vero cells by plaque reduction assay; assay type: functional, organism-based; conditions: Macacine alphaherpesvirus 1, isolate MJ2, Vero
[22] = test system: Macacine alphaherpesvirus 1; test: Antiviral activity against Macacine herpesvirus 1 isolate MR10 infected in african green monkey Vero cells by plaque reduction assay; assay type: functional, organism-based; conditions: Macacine alphaherpesvirus 1, isolate MR10, Vero
[23] = test system: Macacine alphaherpesvirus 1; test: Antiviral activity against Macacine herpesvirus 1 isolate MC1 infected in african green monkey Vero cells by plaque reduction assay; assay type: functional, organism-based; conditions: Macacine alphaherpesvirus 1, isolate MC1, Vero
[24] = test system: Macacine alphaherpesvirus 1; test: Antiviral activity against Macacine herpesvirus 1 isolate A4 infected in african green monkey Vero cells by plaque reduction assay; assay type: functional, organism-based; conditions: Macacine alphaherpesvirus 1, isolate A4, Vero
[25] = test system: Macacine alphaherpesvirus 1; test: Antiviral activity against Macacine herpesvirus 1 isolate E2490 infected in african green monkey Vero cells by plaque reduction assay; assay type: functional, organism-based; conditions: Macacine alphaherpesvirus 1, isolate E2490, Vero
[26] = test system: Macacine alphaherpesvirus 1; test: Antiviral activity against Macacine herpesvirus 1 isolate A2 infected in african green monkey Vero cells by plaque reduction assay; assay type: functional, organism-based; conditions: Macacine alphaherpesvirus 1, isolate A2, Vero
[27] = test system: Macacine alphaherpesvirus 1; test: Antiviral activity against Macacine herpesvirus 1 isolate MJ1 infected in african green monkey Vero cells by plaque reduction assay; assay type: functional, organism-based; conditions: Macacine alphaherpesvirus 1, isolate MJ1, Vero
[28] = test system: Macacine alphaherpesvirus 1; test: Ratio of acyclovir EC50 to compound EC50 for Macacine herpesvirus 1 isolate A3 infected in african green monkey Vero cells; assay type: functional
[29] = test system: Macacine alphaherpesvirus 1; test: Ratio of acyclovir EC50 to compound EC50 for Macacine herpesvirus 1 isolate MR10 infected in african green monkey Vero cells; assay type: functional
[30] = test system: Macacine alphaherpesvirus 1; test: Ratio of acyclovir EC50 to compound EC50 for Macacine herpesvirus 1 isolate MJ1 infected in african green monkey Vero cells; assay type: functional
[31] = test system: Macacine alphaherpesvirus 1; test: Ratio of acyclovir EC50 to compound EC50 for Macacine herpesvirus 1 isolate A2 infected in african green monkey Vero cells; assay type: functional
[32] = test system: Macacine alphaherpesvirus 1; test: Ratio of acyclovir EC50 to compound EC50 for Macacine herpesvirus 1 isolate MP1 infected in african green monkey Vero cells; assay type: functional
[33] = test system: Macacine alphaherpesvirus 1; test: Ratio of acyclovir EC50 to compound EC50 for Macacine herpesvirus 1 isolate MR6 infected in african green monkey Vero cells; assay type: functional
[34] = test system: Macacine alphaherpesvirus 1; test: Ratio of acyclovir EC50 to compound EC50 for Macacine herpesvirus 1 isolate MR2 infected in african green monkey Vero cells; assay type: functional
[35] = test system: Macacine alphaherpesvirus 1; test: Ratio of acyclovir EC50 to compound EC50 for Macacine herpesvirus 1 isolate MJ2 infected in african green monkey Vero cells; assay type: functional
[36] = test system: Macacine alphaherpesvirus 1; test: Ratio of acyclovir EC50 to compound EC50 for Macacine herpesvirus 1 isolate MC1 infected in african green monkey Vero cells; assay type: functional
[37] = test system: Macacine alphaherpesvirus 1; test: Ratio of acyclovir EC50 to compound EC50 for Macacine herpesvirus 1 isolate MR9 infected in african green monkey Vero cells; assay type: functional
[38] = test system: Macacine alphaherpesvirus 1; test: Ratio of acyclovir EC50 to compound EC50 for Macacine herpesvirus 1 isolate E2490 infected in african green monkey Vero cells; assay type: functional
Human alphaherpesvirus 1 [39] = test: Ratio of acyclovir EC50 to compound EC50 for HSV1 infected in african green monkey Vero cells; assay type: functional
Human alphaherpesvirus 2 [40] = test: Ratio of acyclovir EC50 to compound EC50 for HSV 2 infected in african green monkey Vero cells; assay type: functional
[41] = test system: Macacine alphaherpesvirus 1; test: Ratio of acyclovir EC50 to compound EC50 for Macacine herpesvirus 1 isolate MC2 infected in african green monkey Vero cells; assay type: functional
[42] = test system: Macacine alphaherpesvirus 1; test: Ratio of acyclovir EC50 to compound EC50 for Macacine herpesvirus 1 isolate MR7 infected in african green monkey Vero cells; assay type: functional
[43] = test system: Macacine alphaherpesvirus 1; test: Ratio of acyclovir EC50 to compound EC50 for Macacine herpesvirus 1 isolate MJ3 infected in african green monkey Vero cells; assay type: functional
[44] = test system: Macacine alphaherpesvirus 1; test: Ratio of acyclovir EC50 to compound EC50 for Macacine herpesvirus 1 isolate MR4 infected in african green monkey Vero cells; assay type: functional
[45] = test system: Macacine alphaherpesvirus 1; test: Ratio of acyclovir EC50 to compound EC50 for Macacine herpesvirus 1 isolate MR11 infected in african green monkey Vero cells; assay type: functional
[46] = test system: Macacine alphaherpesvirus 1; test: Ratio of acyclovir EC50 to compound EC50 for Macacine herpesvirus 1 isolate A5 infected in african green monkey Vero cells; assay type: functional
[47] = test system: Macacine alphaherpesvirus 1; test: Ratio of acyclovir EC50 to compound EC50 for Macacine herpesvirus 1 isolate MR8 infected in african green monkey Vero cells; assay type: functional
[48] = test system: Macacine alphaherpesvirus 1; test: Ratio of acyclovir EC50 to compound EC50 for Macacine herpesvirus 1 isolate MR3 infected in african green monkey Vero cells; assay type: functional
[49] = test system: Macacine alphaherpesvirus 1; test: Ratio of acyclovir EC50 to compound EC50 for Macacine herpesvirus 1 isolate A6 infected in african green monkey Vero cells; assay type: functional
[50] = test system: Macacine alphaherpesvirus 1; test: Ratio of acyclovir EC50 to compound EC50 for Macacine herpesvirus 1 isolate A4 infected in african green monkey Vero cells; assay type: functional
[51] = test system: Macacine alphaherpesvirus 1; test: Ratio of acyclovir EC50 to compound EC50 for Macacine herpesvirus 1 isolate MR5 infected in african green monkey Vero cells; assay type: functional
[52] = test system: Macacine alphaherpesvirus 1; test: Ratio of acyclovir EC50 to compound EC50 for Macacine herpesvirus 1 isolate A1 infected in african green monkey Vero cells; assay type: functional
[53] = test system: Macacine alphaherpesvirus 1; test: Ratio of acyclovir EC50 to compound EC50 for Macacine herpesvirus 1 isolate MR1 infected in african green monkey Vero cells; assay type: functional
[54] = test system: Macacine alphaherpesvirus 1; test: Antiviral activity against thymidine kinase deficient Macacine herpesvirus 1 isolate E2490 infected in african green monkey Vero cells by plaque reduction assay; assay type: functional, organism-based; conditions: Macacine alphaherpesvirus 1, isolate E2490, Vero

Nc1nc2c(ncn2COCCO)c(=O)[nH]1 [ACYCLOVIR]
EC50 [1]: 19.3 µM | EC50 [2]: 19.3 µM | EC50 [3]: 19.3 µM | EC50 [4]: 19.3 µM | EC50 [5]: 19.3 µM | EC50 [6]: 19.3 µM | EC50 (Human alphaherpesvirus 1 [7]): 19.3 µM | EC50 [8]: 19.3 µM | EC50 [9]: 19.3 µM | EC50 [10]: 19.3 µM | EC50 [11]: 19.3 µM | EC50 [12]: 19.3 µM | EC50 [13]: 19.3 µM | EC50 [14]: 19.3 µM | Activity [15]: 33% | EC50 (Human alphaherpesvirus 2 [16]): 19.3 µM | EC50 [17]: 19.3 µM | EC50 [18]: 19.3 µM | EC50 [19]: 19.3 µM | EC50 [20]: 19.3 µM | EC50 [21]: 19.3 µM | EC50 [22]: 19.3 µM | EC50 [23]: 19.3 µM | EC50 [24]: 19.3 µM | EC50 [25]: 19.3 µM | EC50 [26]: 19.3 µM | EC50 [27]: 19.3 µM

Cc1cn([C@H]2O[C@@H](CO)[C@H](O)[C@H]2F)c(=O)[nH]c1=O [CLEVUDINE]
Ratio EC50 [28]: 100 | Ratio EC50 [29]: 100 | Ratio EC50 [30]: 100 | Ratio EC50 [31]: 100 | Ratio EC50 [32]: 100 | Ratio EC50 [33]: 100 | Ratio EC50 [34]: 100 | Ratio EC50 [35]: 100 | Ratio EC50 [36]: 100 | Ratio EC50 [37]: 100 | Ratio EC50 [38]: 100 | Ratio EC50 (Human alphaherpesvirus 1 [39]): 100 | Ratio EC50 (Human alphaherpesvirus 2 [40]): 100 | Ratio EC50 [41]: 100 | Ratio EC50 [42]: 100 | Ratio EC50 [43]: 100 | Ratio EC50 [44]: 100 | Ratio EC50 [45]: 100 | Ratio EC50 [46]: 100 | Ratio EC50 [47]: 100 | Ratio EC50 [48]: 100 | Ratio EC50 [49]: 100 | Ratio EC50 [50]: 100 | Ratio EC50 [51]: 100 | Ratio EC50 [52]: 100 | Ratio EC50 [53]: 100

Nc1nc2c(ncn2COC(CO)CO)c(=O)[nH]1 [GANCICLOVIR]
EC50 (Human alphaherpesvirus 1 [7]): 19.3 µM | Activity [15]: 100% | EC50 (Human alphaherpesvirus 2 [16]): 19.3 µM | EC50 [23]: 19.3 µM

Nc1ncnc2c1ncn2[C@@H]1O[C@H](CO)[C@@H](O)[C@@H]1O [VIDARABINE]
EC50 [1]: 26.5 µM | EC50 [2]: 26.5 µM | EC50 [3]: 26.5 µM | EC50 [4]: 26.5 µM | EC50 [5]: 26.5 µM | EC50 [54]: 37.8 µM | EC50 [6]: 26.5 µM | EC50 (Human alphaherpesvirus 1 [7]): 26.5 µM | EC50 [8]: 26.5 µM | EC50 [9]: 26.5 µM | EC50 [10]: 26.5 µM | EC50 [11]: 26.5 µM | EC50 [12]: 26.5 µM | EC50 [13]: 26.5 µM | EC50 [14]: 26.5 µM | EC50 (Human alphaherpesvirus 2 [16]): 26.5 µM | EC50 [17]: 26.5 µM | EC50 [18]: 26.5 µM | EC50 [19]: 26.5 µM | EC50 [20]: 26.5 µM | EC50 [21]: 26.5 µM | EC50 [22]: 26.5 µM | EC50 [23]: 26.5 µM | EC50 [24]: 26.5 µM | EC50 [25]: 26.5 µM | EC50 [26]: 26.5 µM | EC50 [27]: 26.5 µM
